Among the test systems are HS 578T breast; PC-3 prostate; MDA-MB-435; NCI/ADR-RES ovarian; MDA-MB-231 breast.
What all share (test): inhibition of tumour cell growth, NCI panel, 48 h

Each structure is given as a SMILES string. Where “and” joins values, the source holds several entries; their conditions need not be identical. Equal values may be shown once.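 How tested: cells in 96-well plates exposed to compound for 48 hours at five concentrations. The concentration for 50% growth inhibition is given as GI50. TGI marks complete inhibition of growth.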

On to `O=C1C=C(NCCNC(=S)Nc2ccccc2)c2nccc3c2c1nc1ccccc13`, for which the GI50 is over 100 µM in the experiment with HS 578T breast; over 100 µM in the experiment with PC-3 prostate; 15.6 µM with MDA-MB-435; over 100 µM in the experiment with NCI/ADR-RES ovarian; 94.5 µM with MDA-MB-231 breast. The TGI was over 100 µM in the experiment on HS 578T breast; over 100 µM with PC-3 prostate; 47.7 µM in the experiment with MDA-MB-435; over 100 µM in the experiment with NCI/ADR-RES ovarian; over 100 µM with MDA-MB-231 breast.

In the case of `O=C(/C(=C\C(=O)c1cccs1)c1ccsc1)c1ccc(Br)cc1`, the TGI in the experiment on HS 578T breast, in the experiment with PC-3 prostate, in the experiment on MDA-MB-435, with NCI/ADR-RES ovarian and with MDA-MB-231 breast was over 100 µM throughout.

`C[C@H](NC(=O)[C@@H]1CSSC[C@@H](NC(=O)c2nc3ccccc3cc2O)C(=O)NCC(=O)N1C)c1ccccc1`: the GI50 was 11.2 µM with HS 578T breast; 5.98 µM in the experiment with PC-3 prostate; 0.737 µM in the experiment on MDA-MB-435; 11 µM with NCI/ADR-RES ovarian; 1.94 µM in the experiment on MDA-MB-231 breast. Moreover, the TGI was 34.1 µM in the experiment with HS 578T breast; 13.5 µM in the experiment on PC-3 prostate; 6.59 µM in the experiment on MDA-MB-435; 50 µM with NCI/ADR-RES ovarian; 7.84 µM in the experiment on MDA-MB-231 breast.

Turning to `COc1ccc(N2Cc3cnc(Nc4ccccc4)nc3N([C@@H]3CC[C@@H](O)C3)C2=O)cc1`, the GI50 in the experiment with HS 578T breast is 0.671 µM; in the experiment with PC-3 prostate, 6.93 µM; with MDA-MB-435, 5.98 µM; with NCI/ADR-RES ovarian it was 6.9 µM; in the experiment with MDA-MB-231 breast it was 5.18 µM. Besides, the TGI with HS 578T breast was 6.2 µM; in the experiment with PC-3 prostate, over 25 µM; in the experiment on MDA-MB-435, over 25 µM; in the experiment with NCI/ADR-RES ovarian, over 25 µM; in the experiment on MDA-MB-231 breast, over 22.3 µM.

As for `O=C1c2ccc([N+](=O)[O-])cc2-c2c1c1ccccc1c(=O)n2CCCNCCCNCCCn1c2c(c3ccc([N+](=O)[O-])cc3c1=O)C(=O)c1ccccc1-2`, the GI50 in the experiment with HS 578T breast was 1.43 µM; in the experiment on PC-3 prostate, 3.31 µM; in the experiment on MDA-MB-435, 3.88 µM; in the experiment on NCI/ADR-RES ovarian it was 7.51 µM; in the experiment on MDA-MB-231 breast it was 0.407 µM. Further, the TGI is 22.7 µM in the experiment with HS 578T breast; 15.9 µM with PC-3 prostate; over 46.6 µM in the experiment with MDA-MB-435; 63.5 µM with NCI/ADR-RES ovarian; 2.85 µM with MDA-MB-231 breast.

As for `CN1CCN(c2ccc(NC(=O)c3nc4ccc5[nH]ncc5c4c4c3CCCC4)cc2C(F)(F)F)CC1`, the GI50 in the experiment with HS 578T breast was 5.99 µM; with MDA-MB-435, 0.899 µM; in the experiment with NCI/ADR-RES ovarian it was 1.27 µM; in the experiment on MDA-MB-231 breast, 0.941 µM. Further, the TGI came to 19.4 µM in the experiment with HS 578T breast, 1.74 µM in the experiment with MDA-MB-435, 4.21 µM with NCI/ADR-RES ovarian and 1.72 µM with MDA-MB-231 breast.

Consider `O=[N+]([O-])c1ccc(S(=O)Cc2ccccc2)c([N+](=O)[O-])c1` (stereo unspecified), for which the GI50 is 21.4 µM in the experiment on HS 578T breast; 14.6 µM in the experiment on PC-3 prostate; 2.51 µM in the experiment with MDA-MB-435; 13.5 µM with NCI/ADR-RES ovarian; 2.82 µM in the experiment on MDA-MB-231 breast. For the same compound, the TGI with HS 578T breast is over 100 µM; in the experiment on PC-3 prostate it was 30.9 µM; in the experiment on MDA-MB-435, 7.69 µM; with NCI/ADR-RES ovarian it was 35.4 µM; in the experiment on MDA-MB-231 breast, 8.92 µM.

In the case of `C=C1SC(=Nc2c(C)cc(C)cc2C)N(C(=O)c2sc3ccccc3c2Cl)C12CCCCC2`, the GI50 was over 100 µM with HS 578T breast; 22.3 µM in the experiment on PC-3 prostate; over 100 µM in the experiment with MDA-MB-435; over 100 µM in the experiment with NCI/ADR-RES ovarian; over 100 µM in the experiment on MDA-MB-231 breast. Also, the TGI with HS 578T breast, in the experiment with PC-3 prostate, in the experiment on MDA-MB-435, in the experiment on NCI/ADR-RES ovarian and in the experiment on MDA-MB-231 breast was over 100 µM in each case.

Turning to `CO/C(=N\N=C\c1cccc(Cl)c1)c1ccncc1`, the TGI in the experiment on PC-3 prostate, in the experiment with MDA-MB-435, in the experiment on NCI/ADR-RES ovarian and in the experiment on MDA-MB-231 breast was over 10 µM each time.

Regarding `COc1cc2c(c(OC)c1OC)-c1ccc(N)c(=O)cc1[C@@H](NC(C)=O)CC2`, the GI50 with HS 578T breast was 0.0127 µM; in the experiment with PC-3 prostate it was 0.0354 µM; with MDA-MB-435, under 0.01 µM; in the experiment with NCI/ADR-RES ovarian, 3.43 µM. Further, the TGI in the experiment on HS 578T breast was over 100 µM; in the experiment with PC-3 prostate it was over 100 µM; in the experiment on NCI/ADR-RES ovarian it was 41.2 µM.

On to `COc1cc(/C=C2\CCC/C(=C\c3cc(OC)c(O)c(OC)c3)C2=O)cc(OC)c1O`, for which the TGI in the experiment on HS 578T breast was over 100 µM; in the experiment with MDA-MB-435, 75 µM and > 100 µM; with MDA-MB-231 breast, 10.8 µM. For the same compound, the GI50 was 1.24 µM with PC-3 prostate and 2.57 µM with MDA-MB-435.

As for `CCCCS(=O)CCC(N)C(=O)O` (stereo unspecified), the TGI with HS 578T breast, in the experiment on PC-3 prostate, in the experiment with NCI/ADR-RES ovarian and with MDA-MB-231 breast was over 100 µM in each case.

For `O=C(c1ccc2ccccc2c1)c1c(C(F)(F)F)n([O-])c2cc(F)c(F)cc2[n+]1=O`, the GI50 is 1.48 µM in the experiment with PC-3 prostate, 1.96 µM in the experiment with MDA-MB-435, 2.93 µM in the experiment with NCI/ADR-RES ovarian and 1.86 µM in the experiment with MDA-MB-231 breast. For the same compound, the TGI was found to be 2.9 µM in the experiment on PC-3 prostate, 4.12 µM with MDA-MB-435, 11.2 µM with NCI/ADR-RES ovarian and 3.99 µM in the experiment on MDA-MB-231 breast.

(Values after PubChem BioAssay (NCI).)
